Our source for the MIC50 values is ChEMBL document CHEMBL1127654, “An epimer of 5'-noraristeromycin and its antiviral properties” (1994).

Assay [1] deals with HEL. As to the kind of experiment: Minimal inhibitory concentration (MIC) required to reduce VZV (YS) in HEL cells. Type of assay: functional. The note with it: Homo sapiens.
The subject of assay [2] is Vero. As to the kind of experiment: Minimal inhibitory concentration (MIC) required to reduce Sindbis in virus in Vero cells. Type of assay: functional. The note with it: Chlorocebus sabaeus.
Assay [3] has as its system Respiratory syncytial virus. In words: Minimal inhibitory concentration (MIC) required to reduce RSV (long) in HeLa cells. Type of assay: functional. Conditions: human respiratory syncytial virus.
Assay [4] deals with MDCK. In words: Minimal inhibitory concentration (MIC) required to reduce Influenza A virus in MDCK cells. Type of assay: functional. Conditions: Canis lupus familiaris.
Assay [5] has as its system HeLa. As to the kind of experiment: Minimal inhibitory concentration (MIC) required to reduce coxsackie B4 in HeLa cells. Type of assay: functional. Conditions: Homo sapiens.
In assay [6] the test system is Vero. As to the kind of experiment: Minimal inhibitory concentration (MIC) required to reduce Junin virus in Vero cells. The note with it: Chlorocebus sabaeus. Type of assay: functional.
The subject of assay [7] is E6SM. As to the kind of experiment: Minimal inhibitory concentration (MIC) required to reduce TK(Thymidine kinase)-HSV-1 (B2006) cytopathicity in E6SM cells. Conditions: Homo sapiens. It counts as functional. (Cytopathic effects are the visible damage that an infection or toxin causes in cultured cells.)
Assay [8] has as its system HeLa. In words: Minimal inhibitory concentration (MIC) required to reduce VSV in HeLa cells. Conditions: Homo sapiens. It counts as functional.
Assay [9] deals with E6SM. As to the kind of experiment: cells. The note with it: Homo sapiens.
The subject of assay [10] is Vero. As to the kind of experiment: Minimal inhibitory concentration (MIC) required to reduce Tacaribe virus in Vero cells. It counts as functional. The note with it: Chlorocebus sabaeus.
For assay [11], the system named is Vero. In words: Minimal inhibitory concentration (MIC) required to reduce Parainfluenza-3 virus in Vero cells. Type of assay: functional. Conditions: Chlorocebus sabaeus.
Assay [12] concerns E6SM. In words: Minimal inhibitory concentration (MIC) required to reduce HSV(herpes simplex virus)-2 cytopathicity E6SM cells. Conditions: Homo sapiens. It counts as functional.
In assay [13] the test system is Vero. As to the kind of experiment: Minimal inhibitory concentration (MIC) required to reduce Reovirus-1 in Vero cells. It counts as functional. Conditions: Chlorocebus sabaeus.
The test system of assay [14] is HEL. In words: Minimal inhibitory concentration (MIC) required to reduce CMV (Davis) in HEL cells. It counts as functional. The note with it: Homo sapiens.
Assay [15] relates to MT4. In words: Minimal inhibitory concentration (MIC) required to reduce HIV(human immunodeficiency virus)-1 in MT-4 cells. It counts as functional.
Assay [16] deals with HEL. As to the kind of experiment: Minimal inhibitory concentration (MIC) required to reduce VZV (varicella zoster virus) (OKA) in HEL cells. It counts as functional. The note with it: Homo sapiens.
The test system of assay [17] is E6SM. In words: Minimal inhibitory concentration (MIC) required to reduce TK-HSV-1 (VMW 1837) cytopathicity in E6SM cells. Conditions: Homo sapiens. Type of assay: functional.
For assay [18], the system named is Vero. As to the kind of experiment: Minimal inhibitory concentration (MIC) required to reduce forest virus in Vero cells. It counts as functional. The note with it: Chlorocebus sabaeus.
The test system of assay [19] is E6SM. In words: Minimal inhibitory concentration (MIC) required to reduce HSV(herpes simplex virus)-1 (KOS) cytopathicity in E6SM cells. It counts as functional. Conditions: Homo sapiens.
The subject of assay [20] is HEL. In words: Minimal inhibitory concentration (MIC) required to reduce CMV (cytomegalo virus) (AD-169) in HEL cells. Type of assay: functional, Homo sapiens.
The subject of assay [21] is HeLa. In words: Minimal inhibitory concentration (MIC) required to reduce Polio-1 in HeLa cells. It counts as functional. Conditions: Homo sapiens.
Assay [22] has as its system E6SM. In words: cells. Conditions: Homo sapiens. The source holds these as a separate data set.
The subject of assay [23] is MT4. As to the kind of experiment: Minimal inhibitory concentration (MIC) required to reduce HIV-2 in MT-4 cells. Type of assay: functional. The note with it: Homo sapiens.
For assay [24], the system named is MDCK. In words: Minimal inhibitory concentration (MIC) required to reduce Influenza B in MDCK cells. Type of assay: functional. Conditions: Canis lupus familiaris.
Assay [25] deals with MDCK. In words: Minimal inhibitory concentration (MIC) required to reduce Influenza B virus in MDCK cells. Type of assay: functional. The note with it: Canis lupus familiaris.

The structures appear in SMILES notation. In brackets after ≈: the same amount, converted by molar mass. A value given as a limit tells only on which side of the number the result lay.

For `Nc1ncnc2c1ncn2[C@@H]1C[C@@H](O)[C@@H](O)[C@H]1O`, the MIC50 in the assay with HEL [1] is 1 µg/mL (≈ 3.98 µM); with Vero [2], > 200 µg/mL; in [3] it was 100 µg/mL (≈ 398 µM); in the assay on MDCK [4], > 200 µg/mL; in the assay on HeLa [5], > 400 µg/mL; in the assay on Vero [6], 30 µg/mL (≈ 119 µM). In addition, the MIC50 against E6SM [7] is 200 µg/mL (≈ 796 µM); in the assay with HeLa [8], > 0.2 µg/mL; in the assay on E6SM [9], 0.1 µg/mL (≈ 0.398 µM); with Vero [10] it was 27 µg/mL (≈ 107 µM); in the assay with Vero [11], 0.04 µg/mL (≈ 0.159 µM); with E6SM [12], 300 µg/mL (≈ 1190 µM). Further, the MIC50 against Vero [13] was 0.3 µg/mL (≈ 1.19 µM); with HEL [14] it was 3 µg/mL (≈ 11.9 µM); against MT4 [15] it was > 0.8 µg/mL; in the assay on HEL [16], 6 µg/mL (≈ 23.9 µM); in the assay with E6SM [17] it was 200 µg/mL (≈ 796 µM); against Vero [18] it was > 200 µg/mL. Further, the MIC50 with E6SM [19] is > 300 µg/mL; in the assay on HEL [20] (Homo sapiens, read-out: MIC50) it was 5 µg/mL (≈ 19.9 µM); against HeLa [21] it was > 400 µg/mL; in the assay on E6SM [22], 0.2 µg/mL (≈ 0.796 µM); against MT4 [23], > 0.8 µg/mL; in the assay with MDCK [24], > 200 µg/mL.
In the case of `Nc1nccc2c1ncn2[C@@H]1C[C@H](CO)[C@@H](O)[C@H]1O` [3-DEAZAARISTEROMYCIN A], the MIC50 in the assay on HEL [1] was > 40 µg/mL; against Vero [2] it was 4 µg/mL (≈ 15.1 µM); in assay [3], 100 µg/mL (≈ 378 µM); in the assay with MDCK [4] it was > 100 µg/mL; in the assay on HeLa [5] it was > 400 µg/mL; in the assay on Vero [6] it was 7 µg/mL (≈ 26.5 µM). The MIC50 in the assay on E6SM [7] is > 400 µg/mL; in the assay on HeLa [8] it was > 7 µg/mL; with E6SM [9] it was 1 µg/mL (≈ 3.78 µM); with Vero [10], 7 µg/mL (≈ 26.5 µM); against Vero [11], > 1 µg/mL; against MDCK [25], > 30 µg/mL. The MIC50 against E6SM [12] is > 400 µg/mL; against Vero [13] it was 2 µg/mL (≈ 7.57 µM); in the assay with HEL [16], > 40 µg/mL; against E6SM [17], > 400 µg/mL; in the assay with Vero [18] it was > 400 µg/mL; with E6SM [19] it was > 400 µg/mL. Moreover, the MIC50 in the assay with HEL [20] was 7 µg/mL (≈ 26.5 µM); in the assay with HEL [20] (Homo sapiens, read-out: MIC50), > 7 µg/mL; against HeLa [21], > 400 µg/mL; in the assay with E6SM [22], 1 µg/mL (≈ 3.78 µM).
For `Nc1ncnc2c1ncn2[C@@H]1C=C(CO)[C@@H](O)[C@H]1O` [NEOPLANOCIN A], the MIC50 was 1 µg/mL (≈ 3.8 µM) with HEL [1]; 2 µg/mL (≈ 7.6 µM) in the assay on Vero [2]; > 1 µg/mL in assay [3]; 1 µg/mL (≈ 3.8 µM) in the assay on MDCK [4]; > 40 µg/mL in the assay with HeLa [5]; 1 µg/mL (≈ 3.8 µM) in the assay with Vero [6]. The MIC50 was 20 µg/mL (≈ 76 µM) in the assay on E6SM [7]; 2 µg/mL (≈ 7.6 µM) against HeLa [8]; 0.2 µg/mL (≈ 0.76 µM) against E6SM [9]; 1 µg/mL (≈ 3.8 µM) with Vero [10]; 0.2 µg/mL (≈ 0.76 µM) against Vero [11]; > 3 µg/mL with MDCK [25]. Further, the MIC50 against E6SM [12] is > 100 µg/mL; against Vero [13], 0.7 µg/mL (≈ 2.66 µM); in the assay on HEL [16], 6 µg/mL (≈ 22.8 µM); against E6SM [17], 70 µg/mL (≈ 266 µM); in the assay with Vero [18], 7 µg/mL (≈ 26.6 µM); in the assay with E6SM [19] it was 70 µg/mL (≈ 266 µM). Also, the MIC50 with HEL [20] was 0.4 µg/mL (≈ 1.52 µM); in the assay on HEL [20] (Homo sapiens, read-out: MIC50), 0.6 µg/mL (≈ 2.28 µM); in the assay with HeLa [21], > 40 µg/mL; in the assay on E6SM [22], 2 µg/mL (≈ 7.6 µM).
